In US20090281025A1, “INHIBITION OF TUMOR GROWTH AND METASTASIS BY ATF2-DERIVED PEPTIDES” (Mount Sinai School Of Medicine of New York University, priority 2004, published 2009):
“And” between values parts separate entries of the source, which are not always exact repeats. Identical values can stand only once.

Tests used:
[1] = test system: SW1 tumors; experiment: cDNA microarray gene expression profiling of SW1 tumors; type: in vivo, mouse
From the text: FIGS. 8A and 8B show gene profiling analysis of SW1 tumors expressing the ATF2^51-100 peptide. Tumors generated, in the absence or presence of a peptide, were used as source of mRNA for array analysis of 10K mouse genes (see Example 5). […] In all cases, the data represent analyses carried out 4 times from 4 different pools of tumors.
To elucidate the molecular pathways affected by expression of the ATF2^51-100 peptide, we used cDNA microarray analysis to compare the RNA expression profiles of SW1 tumors that express this peptide or a control vector (FIG. 8A). The 10k mouse Gem 2 gene set (Incyte Genomics Inc, Palo Alto, Calif.) was printed at the NCI on poly-L-lysine-coated glass using a Biorobotics TASII arrayer (Cambridge, England). All protocols for manufacturing and hybridization of microarrays are posted on the NCI web site (see, e.g., nciarray.nci.nih.gov). Approximately 20 μg of total RNA were used in the reverse transcription reaction to directly label the probe with Cy-5 dUTP or Cy-3 dUTP (Amersham). Hybridizations were performed at 65° C. for 12-18 h in a hybridization volume of 35 μL. The hybridized arrays were scanned using an Axon GenePix 4000 scanner (Union City, Calif.) and fluorescence data were collected using the GenePix software.
mRNA was prepared from a pool of 4 tumors obtained from two different experiments. In both cases, tumors were excised 2 weeks after subcutaneous injection of cells. Because the fluorescently labeled Cy dyes may incorporate into the reverse-transcribed cDNA with different efficiencies, RNA isolated from both cell types was always labeled with both combinations of Cy dyes. […] SW1 vector control cells were labeled with Cy-3 (F532) and the SW1-ATF 51-100 cells were labeled with Cy-5 (F635).

[2] = test system: MCF7 human breast cancer cells; settings: cited from earlier work
[3] = tumors expressing peptide vs control vector

- Ratio ATFp2-Cy5 vs parental control-Cy3: Mme (membrane metallo endopeptidase) ([1]; upregulated, IMAGE: 849871, hybridizations #1-#4, listed as ATFp2): 4.8477 and 4.8652 and 4.8096 and 4.5247
- Ratio ATFp2-Cy5 vs parental control-Cy3: Akr1c13 (aldo-keto reductase family 1, member C13) ([1]; upregulated, IMAGE: 1052178, hybridizations #1-#4, listed as ATFp2): 3.6319 and 3.6450 and 3.4859 and 3.4284
- Ratio ATFp2-Cy5 vs parental control-Cy3: Tna (tetranectin (plasminogen-binding protein)) ([1]; upregulated, IMAGE: 1068748, hybridizations #1-#4, listed as ATFp2): 5.0430 and 5.0612 and 4.9219 and 4.6123
- Ratio ATFp2-Cy5 vs parental control-Cy3: Top1 (topoisomerase (DNA) I) ([1]; upregulated, IMAGE: 1107479, hybridizations #1-#4, listed as ATFp2): 2.6799 and 2.6896 and 3.4635 and 3.3665
- Ratio ATFp2-Cy5 vs parental control-Cy3: Igfbp2 (insulin-like growth factor binding protein 2) ([1]; upregulated, IMAGE: 1277469, hybridizations #1-#4, listed as ATFp2): 3.2649 and 3.2767 and 3.3268 and 3.0043
Substance: ATF2^51-100: amino-terminal peptide of ATF2, amino acid residue 51 to 100 (about a 50 amino acid peptide), expressed in tumor cells (MTLKFGPARNDSVIVADQTPTPTRFLKNCEEVGLFNELASPFENEFKKAS; UniProt P15336 51-100, looked up, fragment)
- Ratio ATFp2-Cy5 vs parental control-Cy3: Myo5b (myosin Vb) ([1]; down regulated, IMAGE: 1378935, hybridizations #1-#4, listed as ATFp2): 0.2748 and 0.2758 and 0.2551 and 0.2439
- Ratio ATFp2-Cy5 vs parental control-Cy3: Mtap6 (microtubule-associated protein 6) ([1]; down regulated, IMAGE: 1430217, hybridizations #1-#4, listed as ATFp2): 0.3697 and 0.3710 and 0.5261 and 0.7243
- expression of Fas-associated genes [1, 3]: down-regulation
- expression of growth-associated genes (epidermal growth factor, hepatoma-derived growth factor, insulin-like growth factor) and interferon-associated genes [1, 3]: consistent down-regulation
- expression of tumor necrosis factor-related genes [1, 3]: strongly upregulated
- Ratio ATFp2-Cy5 vs parental control-Cy3: Kifap3 (kinesin-associated protein 3) ([1]; upregulated, IMAGE: 331395, hybridizations #1-#4, listed as ATFp2): 2.1192 and 2.1268 and 2.9811 and 3.9220
- Ratio ATFp2-Cy5 vs parental control-Cy3: Hbb-b1 (hemoglobin, beta adult major chain) ([1]; upregulated, IMAGE: 332935, hybridizations #1-#4, listed as ATFp2): 3.1997 and 3.2112 and 2.7725 and 3.6146
- Ratio ATFp2-Cy5 vs parental control-Cy3: Hbb-b1 (hemoglobin, beta adult major chain) ([1]; upregulated, IMAGE: 518979, hybridizations #1-#4, listed as ATFp2): 2.8994 and 2.9099 and 2.4766 and 2.5621
- Ratio ATFp2-Cy5 vs parental control-Cy3: D0H4S114 (DNA segment, human D4S114) ([1]; upregulated, IMAGE: 535754, hybridizations #1-#4, listed as ATFp2): 3.0625 and 3.0736 and 4.2117 and 3.5432
- Ratio ATFp2-Cy5 vs parental control-Cy3: Scyb13 (small inducible cytokine subfamily B (Cys-X-Cys), member 13) ([1]; upregulated, IMAGE: 596683, hybridizations #1-#4, listed as ATFp2): 3.6935 and 3.7069 and 4.4104 and 4.1619
- Ratio ATFp2-Cy5 vs parental control-Cy3: C85356 (expressed sequence C85356) ([1]; upregulated, IMAGE: 776163, hybridizations #1-#4, listed as ATFp2): 6.2407 and 6.2633 and 5.4673 and 4.7632
- Ratio ATFp2-Cy5 vs parental control-Cy3: ESTs ([1]; upregulated, IMAGE: 809168, hybridizations #1-#4, listed as ATFp2): 2.6457 and 2.6552 and 2.6858 and 2.3889
- Ratio ATFp2-Cy5 vs parental control-Cy3: Ogn (osteoglycin) ([1]; upregulated, IMAGE: 902951, hybridizations #1-#4, listed as ATFp2): 2.7606 and 2.7705 and 2.7398 and 2.3263
- Ratio ATFp2-Cy5 vs parental control-Cy3: RIKEN cDNA 1110068L01 gene ([1]; upregulated, IMAGE: 960604, hybridizations #1-#4, listed as ATFp2): 2.7162 and 2.7260 and 3.6427 and 3.9752
- Ratio ATFp2-Cy5 vs parental control-Cy3: Il1b (interleukin 1 beta) ([1]; upregulated, IMAGE: 1139544, hybridizations #1-#4, listed as ATFp2): 2.5423 and 2.5514 and 3.4806 and 3.3033
- Ratio ATFp2-Cy5 vs parental control-Cy3: Igj (immunoglobulin joining chain) ([1]; upregulated, IMAGE: 1277614, hybridizations #1-#4, listed as ATFp2): 3.0715 and 3.0826 and 3.4986 and 4.0870
- Ratio ATFp2-Cy5 vs parental control-Cy3: Sp3 (trans-acting transcription factor 3) ([1]; upregulated, IMAGE: 1399769, hybridizations #1-#4, listed as ATFp2): 2.3816 and 2.3902 and 3.1712 and 3.6075
- Ratio ATFp2-Cy5 vs parental control-Cy3: Efemp1 (epidermal growth factor-containing fibulin) ([1]; upregulated, IMAGE: 1480170, hybridizations #1-#4, listed as ATFp2): 2.6354 and 2.6449 and 2.6270 and 2.3980
- Ratio ATFp2-Cy5 vs parental control-Cy3: Lum (lumican) ([1]; upregulated, IMAGE: 2101997, hybridizations #1-#4, listed as ATFp2): 2.5956 and 2.6050 and 2.6414 and 2.8732
- sensitization by ATF2 peptide [2]: also observed
